Values quoted from earlier work as cited in patent US9029312B2, “Compositions for cleaning applicators for hair removal compositions” (priority 2012, dated 2015).

Assays:
[1] = Bhargava & Leonard 1996

Question: For `Oc1cc(Cl)ccc1Oc1ccc(Cl)cc1Cl` [Triclosan, 5-Chloro-2-(2,4-dichlorophenoxy) phenol], which “carcinogenic, mutagenic or teratogenic effects” value [1] is on record?
Answer: not found to have any carcinogenic, mutagenic or teratogenic effects

Question: What about the “toxicity to humans and other mammals” value [1] of the same compound?
Answer: relatively non-toxic

Question: And the “solubility in mineral oil” value?
Answer: relatively high solubility in mineral oil
